Source: ChEMBL document CHEMBL1201862, “PubChem BioAssay data set” (2004)
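Compound exposure: 48 hours, 5 concentrations, 96-well plates. Abbreviation: GI50, concentration required for 50% inhibition of growth.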 Calls of active or inactive are those of the source. Rule as the data show it: active = GI50 up to about 1.1 µM and inactive = higher.

Tests used:
Experiment in all cases: inhibition of tumour cell growth, NCI panel, 48 h
[1] = test system: SK-OV-3
[2] = test system: A549
[3] = test system: SF-295
[4] = test system: HCT-15
[5] = test system: A498
[6] = test system: HCT-116
[7] = test system: UACC-257
[8] = test system: SK-MEL-28
[9] = test system: MDA-N
[10] = test system: MOLT-4
[11] = test system: SW-620
[12] = test system: NCI/ADR-RES
[13] = test system: OVCAR-4
[14] = test system: DU-145
[15] = test system: COLO 205
[16] = test system: TK-10
[17] = test system: Malme-3M
[18] = test system: RXF 393
[19] = test system: CCRF-CEM
[20] = test system: OVCAR-8

| Compound | GI50 [1] | GI50 [2] | GI50 [3] | GI50 [4] [µM] | GI50 [5] | GI50 [6] | GI50 [7] | GI50 [8] | GI50 [9] | GI50 [10] | GI50 [11] | GI50 [12] | GI50 [13] | GI50 [14] | GI50 [15] | GI50 [16] | GI50 [17] | GI50 [18] | GI50 [19] | GI50 [20] |
| --- | --- | --- | --- | --- | --- | --- | --- | --- | --- | --- | --- | --- | --- | --- | --- | --- | --- | --- | --- | --- |
| CCCCCCCCC/C=C1/CC(CO)(COC(=O)c2ccccc2)OC1=O (configuration not stated) | 18.6 µM (inactive) | 12.9 µM (inactive) | 10 µM (inactive) | 16.3 | 13.2 µM (inactive) | 23.2 µM (inactive) | 14.2 µM (inactive) | 13.7 µM (inactive) | 6.01 µM (inactive) | 4.98 µM (inactive) | 14.4 µM (inactive) | 15.5 µM (inactive) | 12.7 µM (inactive) | 12.9 µM (inactive) | 1.85 µM (inactive) | 10.8 µM (inactive) | 6.92 µM (inactive) | 15.6 µM (inactive) | 10.9 µM (inactive) | – |
| Nc1c(S(N)(=O)=O)cc(S(N)(=O)=O)cc1S(N)(=O)=O | > 100 µM (inactive) | > 100 µM (inactive) | > 100 µM (inactive) | > 100 | > 100 µM (inactive) | > 100 µM (inactive) | > 100 µM (inactive) | > 100 µM (inactive) | > 100 µM (inactive) | > 100 µM (inactive) | > 100 µM (inactive) | > 100 µM (inactive) | > 100 µM (inactive) | > 100 µM (inactive) | > 100 µM (inactive) | > 100 µM (inactive) | > 100 µM (inactive) | > 100 µM (inactive) | – | > 100 µM (inactive) |
| CCOC(=O)CCC(C(=O)OCC)n1nc2ccc(Nc3c(C)[n+]([O-])c4cc(F)c(OCC)cc4[n+]3[O-])cc2n1 (configuration not stated) | 31.9 µM (inactive) | 75.2 µM (inactive) | 36.1 µM (inactive) | > 100 | 52.4 µM (inactive) | 50.8 µM (inactive) | > 100 µM (inactive) | – | > 100 µM (inactive) | > 100 µM (inactive) | > 100 µM (inactive) | 62.1 µM (inactive) | 47.6 µM (inactive) | > 100 µM (inactive) | > 100 µM (inactive) | 42.7 µM (inactive) | > 100 µM (inactive) | 11.6 µM (inactive) | > 100 µM (inactive) | 30 µM (inactive) |
| Cc1cc(C)n(CN(Cn2nc(C)cc2C)C2CCCCC2)n1 | 38 µM (inactive) | 66.2 µM (inactive) | 94 µM (inactive) | 20.6 | > 100 µM (inactive) | 22.4 µM (inactive) | 28.1 µM (inactive) | 20.7 µM (inactive) | 19 µM (inactive) | – | 29.7 µM (inactive) | 19.8 µM (inactive) | 24.2 µM (inactive) | 24.3 µM (inactive) | 18.1 µM (inactive) | 44.4 µM (inactive) | 20.5 µM (inactive) | 22.4 µM (inactive) | 19 µM (inactive) | 25.7 µM (inactive) |
| O=C1CC(=O)n2cnc3cccc(c32)N1 | > 100 µM (inactive) | > 100 µM (inactive) | > 100 µM (inactive) | > 100 | > 100 µM (inactive) | > 100 µM (inactive) | > 100 µM (inactive) | > 100 µM (inactive) | > 100 µM (inactive) | – | > 100 µM (inactive) | > 100 µM (inactive) | > 100 µM (inactive) | > 100 µM (inactive) | > 100 µM (inactive) | – | > 100 µM (inactive) | > 100 µM (inactive) | > 100 µM (inactive) | > 100 µM (inactive) |
| CNc1ncnc2c1ncn2C1C=CC(COS(N)(=O)=O)C1 (configuration not stated) | > 100 µM (inactive) | > 100 µM (inactive) | > 100 µM (inactive) | > 100 | > 100 µM (inactive) | > 100 µM (inactive) | > 100 µM (inactive) | > 100 µM (inactive) | > 100 µM (inactive) | > 100 µM (inactive) | > 100 µM (inactive) | > 100 µM (inactive) | > 100 µM (inactive) | > 100 µM (inactive) | > 100 µM (inactive) | – | > 100 µM (inactive) | > 100 µM (inactive) | > 100 µM (inactive) | > 100 µM (inactive) |
| CC(=O)Nc1ccc(OC/C(N)=N/NC(=O)c2ccncc2)cc1 | > 100 µM (inactive) | > 100 µM (inactive) | > 100 µM (inactive) | > 100 | > 100 µM (inactive) | > 100 µM (inactive) | > 100 µM (inactive) | > 100 µM (inactive) | > 100 µM (inactive) | > 100 µM (inactive) | > 100 µM (inactive) | > 100 µM (inactive) | > 100 µM (inactive) | > 100 µM (inactive) | > 100 µM (inactive) | > 100 µM (inactive) | – | > 100 µM (inactive) | > 100 µM (inactive) | > 100 µM (inactive) |
| O=C1N[C@@H]2c3c(Br)sc(Br)c3C(=O)[C@@H]2O1 | 18.7 µM (inactive) | 16.4 µM (inactive) | 17.2 µM (inactive) | 1.91 | 16.7 µM (inactive) | – | 3.32 µM (inactive) | 2.62 µM (inactive) | 2.44 µM (inactive) | 1.89 µM (inactive) | 1.96 µM (inactive) | 3.66 µM (inactive) | 1.79 µM (inactive) | 15 µM (inactive) | 2.56 µM (inactive) | 6 µM (inactive) | 2.59 µM (inactive) | 2.2 µM (inactive) | 1.57 µM (inactive) | 2.11 µM (inactive) |
| N=C(/C=C/c1ccc(-c2cn3cc(/C=C/C(=N)N4CCOCC4)ccc3n2)cc1)N1CCOCC1 | > 100 µM (inactive) | > 100 µM (inactive) | > 100 µM (inactive) | > 100 | > 100 µM (inactive) | > 100 µM (inactive) | > 100 µM (inactive) | > 100 µM (inactive) | > 100 µM (inactive) | – | > 100 µM (inactive) | > 100 µM (inactive) | > 100 µM (inactive) | > 100 µM (inactive) | > 100 µM (inactive) | > 100 µM (inactive) | > 100 µM (inactive) | > 100 µM (inactive) | – | > 100 µM (inactive) |
| Cc1cn(C2CC(N=[N+]=[N-])C(CO[Si](C)(C)C(C)(C)C)O2)c(=O)[nH]c1=O (configuration not stated) | 18.4 µM (inactive) | 27.2 µM (inactive) | 17.3 µM (inactive) | 18.3 | 16.1 µM (inactive) | 16.1 µM (inactive) | 21.6 µM (inactive) | – | 17 µM (inactive) | 26.7 µM (inactive) | 16.9 µM (inactive) | 16.6 µM (inactive) | 14.2 µM (inactive) | 21.6 µM (inactive) | 17.5 µM (inactive) | 16.3 µM (inactive) | 14.3 µM (inactive) | 15.5 µM (inactive) | 24.5 µM (inactive) | 19.4 µM (inactive) |
| Cc1cc2ccccc2c[n+]1CC(=O)CC([O-])(C(F)(F)F)C(F)(F)F | > 100 µM (inactive) | > 100 µM (inactive) | > 100 µM (inactive) | > 100 | 36.1 µM (inactive) | > 100 µM (inactive) | > 100 µM (inactive) | > 100 µM (inactive) | > 100 µM (inactive) | 79.8 µM (inactive) | > 100 µM (inactive) | > 100 µM (inactive) | > 100 µM (inactive) | > 100 µM (inactive) | > 100 µM (inactive) | – | > 100 µM (inactive) | 37.3 µM (inactive) | 90.8 µM (inactive) | > 100 µM (inactive) |
| C=CCOc1ccc(C2C(C(=O)OCC)C(=O)CC(C)(O)C2C(=O)OCC)cc1OC (configuration not stated) | – | > 100 µM (inactive) | > 100 µM (inactive) | > 100 | > 100 µM (inactive) | > 100 µM (inactive) | > 100 µM (inactive) | > 100 µM (inactive) | > 100 µM (inactive) | > 100 µM (inactive) | > 100 µM (inactive) | > 100 µM (inactive) | > 100 µM (inactive) | > 100 µM (inactive) | > 100 µM (inactive) | > 100 µM (inactive) | > 100 µM (inactive) | > 100 µM (inactive) | > 100 µM (inactive) | > 100 µM (inactive) |
| Cc1ccc2c(=O)c3cccc(CC(=O)O)c3[nH]c2c1C | > 100 µM (inactive) | > 100 µM (inactive) | > 100 µM (inactive) | > 100 | > 100 µM (inactive) | > 100 µM (inactive) | > 100 µM (inactive) | > 100 µM (inactive) | > 100 µM (inactive) | > 100 µM (inactive) | > 100 µM (inactive) | > 100 µM (inactive) | > 100 µM (inactive) | > 100 µM (inactive) | > 100 µM (inactive) | > 100 µM (inactive) | > 100 µM (inactive) | – | > 100 µM (inactive) | > 100 µM (inactive) |
| COc1cc2c[n+](C)c3c4cc(OC)c(OC)cc4c(OCc4ccccc4)cc3c2cc1OC | 11.7 µM (inactive) | 4.72 µM (inactive) | 4.89 µM (inactive) | > 100 | 27.3 µM (inactive) | 1.02 µM (active) | 0.706 µM (active) | 1.24 µM (inactive) | 0.982 µM (active) | 0.592 µM (active) | 0.805 µM (active) | > 100 µM (inactive) | 2.02 µM (inactive) | 1.08 µM (active) | 0.263 µM (active) | > 31.6 µM (inactive) | 1.29 µM (inactive) | 1.6 µM (inactive) | – | 1.91 µM (inactive) |
| Cc1ccc(S(N)(=O)=O)cc1 [P-TOLUENESULFONAMIDE] | > 1000 µM (inactive) | > 1000 µM (inactive) | > 1000 µM (inactive) | > 1000 | > 1000 µM (inactive) | > 1000 µM (inactive) | > 1000 µM (inactive) | – | > 1000 µM (inactive) | > 1000 µM (inactive) | > 1000 µM (inactive) | > 1000 µM (inactive) | – | > 1000 µM (inactive) | > 1000 µM (inactive) | > 1000 µM (inactive) | > 1000 µM (inactive) | 502 µM (inactive) | > 1000 µM (inactive) | > 1000 µM (inactive) |
